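Where inhibition never reached the appropriate level, the endpoint shown equals the highest concentration tested. Otherwise, values were interpolated linearly from a five-concentration, 48-hour dose response in 96-well plates. TGI: concentration producing complete growth inhibition.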
Legend:
Experiment in all cases: inhibition of tumour cell growth, NCI panel, 48 h
[1] = system: LOX IMVI melanoma
[2] = system: TK-10 renal
[3] = system: NCI-H23 lung
[4] = system: ACHN renal
[5] = system: SK-MEL-28 melanoma
[6] = system: A549 NSCLC
[7] = system: HL-60(TB) leukemia
[8] = system: SF-268 CNS
[9] = system: DU-145 prostate
[10] = system: RXF 393 renal

| SMILES | TGI [1] [µM] | TGI [2] [µM] | TGI [3] [µM] | TGI [4] [µM] | TGI [5] [µM] | TGI [6] [µM] | TGI [7] [µM] | TGI [8] [µM] | TGI [9] [µM] | TGI [10] [µM] |
| --- | --- | --- | --- | --- | --- | --- | --- | --- | --- | --- |
| COc1ccc(N2C(=O)[C@@H]3[C@@H]4CC(C)CC[C@@H]4c4c([nH]c5ccccc45)[C@@H]3C2=O)cc1 (some centres not stated) | > 87.6 | 45.6 | > 47.5 | 26.9 | > 100 | > 68.3 | 89.4 | 37.9 | – | – |
| COc1ccc2cc(CNCCCCCCNC(=O)Nc3cccc4ccccc34)ccc2c1 | > 100 | > 100 | > 100 | > 100 | > 100 | > 100 | > 100 | > 100 | > 100 | > 100 |
| CC(NC(CC12CC3CC(CC(C3)C1)C2)C(N)=O)c1ccccc1 (configuration not stated) | 30.7 | > 100 | – | 57.6 | 40.4 | > 100 | 28.4 | 61.2 | > 100 | – |
| N#CCCN(C(=O)Nc1ccc(NC(=O)N(CCC#N)c2ccccc2)cc1)c1ccccc1 | > 100 | – | > 100 | > 100 | > 100 | > 100 | > 100 | > 100 | > 100 | > 100 |
| CC(=O)CC(O)(C(F)(F)Cl)C(F)(Cl)Cl (configuration not stated) | > 10 | > 10 | > 10 | > 10 | > 10 | > 10 | > 10 | > 10 | > 10 | > 10 |
| O=C(OC[C@H]1C[C@H]2C(=O)OCCC[C@H]2O1)c1ccccc1 | – | > 100 | > 100 | > 100 | > 100 | > 100 | > 100 | > 100 | > 100 | – |
| NC1CC(=O)c2c(I)sc(I)c21 (configuration not stated) | 27.2 | 37.2 | 35 | 42.1 | 43.2 | > 79.5 | 14.6 | 46.1 | > 55.1 | > 60.8 |
| CCOC(=O)/C(C(=O)c1ccc[nH]1)=C1/CCCN1C | > 100 | > 100 | > 100 | > 100 | > 100 | > 100 | > 100 | > 100 | > 100 | > 100 |
| CCn1c(=O)c2nc(SC)sc2n(-c2ccccc2)c1=S | > 100 | > 100 | > 100 | > 100 | > 100 | > 100 | 19.9 | > 100 | > 100 | > 100 |
| CC1(C)OCC(/C=C\C(O)CC2(C)OCCO2)CO1 (configuration not stated) | > 100 | > 100 | – | > 100 | > 100 | > 100 | > 100 | > 100 | > 100 | – |
| COC(=O)[C@@H]1CN(C(=O)Cc2ccccc2)C(=O)N1 | > 100 | > 100 | > 100 | > 100 | > 100 | > 100 | > 100 | > 100 | > 100 | > 100 |
| C1CCC(CC2CCC(NC3=NCCO3)CC2)CC1 (configuration not stated) | 30.9 | 28.6 | 36.5 | 35.5 | 33.2 | > 100 | 34 | 62.1 | 94.9 | 36.6 |
| C#C[C@]1(O)CC[C@H]2[C@@H]3CCC4=C/C(=N/OC(=O)c5cccc6cc7ccccc7nc56)CC[C@@H]4[C@H]3CC[C@@]21CC | > 100 | – | > 100 | > 100 | > 100 | > 100 | > 100 | > 100 | > 100 | > 100 |
| O=C(Cn1c(=O)oc2ccccc21)N(c1ccccc1)c1ccccc1 | > 100 | > 100 | > 100 | > 100 | > 100 | – | > 100 | > 100 | > 100 | > 100 |
| Cc1[nH]c2c(C)c3c([nH]c4ccc(Cl)cc43)c(C)c2c(=O)c1C | 15.7 | 24.1 | 18.9 | 11.6 | > 100 | 10 | 9.64 | > 100 | > 100 | – |
| CCc1nnc2sc(-c3ccc(-c4ccccc4[N+](=O)[O-])o3)nn12 | > 100 | > 100 | > 100 | > 100 | – | > 100 | 99.2 | > 100 | > 100 | > 100 |
| O=C1OCc2nc3c(c(-c4ccccc4C(F)(F)F)c21)C(=O)OC3 | > 100 | > 100 | > 100 | > 100 | > 100 | > 100 | > 100 | > 100 | – | > 100 |
| CC(=O)N(C(=O)CC(=O)N1N=C(C)C(N=Nc2cccc([N+](=O)[O-])c2)C1=O)c1ccc(Cl)cc1 (configuration not stated) | > 10 | > 10 | > 10 | > 10 | > 10 | > 10 | > 10 | > 10 | > 10 | – |
| O=C1C=C2SC3C[C@@]24CC1(O)[N+]1=c2c4c(c(O)c4c2=C(C=N4)CC1)N3 | 1.55 | – | 2.71 | – | 3.03 | 4.11 | 0.534 | 2.19 | – | 2.71 |
| COc1ccc2nc(-c3ccc(N)cc3)sc2c1 | – | > 100 | > 100 | > 100 | > 100 | > 100 | > 100 | > 100 | – | > 100 |
| COC1=CC(=O)[C@@]2(C)C(C)[C@H](c3ccccc3)[C@H]2C1=O (some centres not stated) | > 100 | > 100 | > 100 | > 100 | > 100 | > 100 | > 100 | > 100 | – | > 100 |
| CCOC(=O)c1c(NS(=O)(=O)c2ccccc2)sc2c1CCCC2 | – | > 100 | > 100 | > 100 | – | > 100 | > 100 | > 100 | > 100 | > 100 |
